According to the NIST ThermoML archive (doi:10.1016/j.jct.2018.04.007):
± gives the expanded uncertainty stated by the source.

What was measured:
[1] = wn = mass fraction of the nth substance listed; conditions: 96.2 kPa, Liquid, w1 = 0.3; for viscosity: Cone and plate viscometry; for mass density: Pycnometric method; for thermal conductivity: transient hot wire
[2] = molar heat capacity at constant pressure; wn = mass fraction of the nth substance listed; conditions: 96.2 kPa, Liquid, DSC, w1 = 0.3

CC(O)CO (stereo unspecified) [1,2-propanediol] + O
Conditions	mass density, [1] [kg/m3]	molar heat capacity at constant pressure, [2] [J/K/mol]	thermal conductivity, [1] [W/m/K]	viscosity, [1] [mPa·s]
293.15 K	1023.1 ± 1.1	89.44 ± 4.1	0.443 ± 0.013	3.02 ± 0.09
303.15 K	1019.2 ± 1.1	90 ± 4.2	0.454 ± 0.014	2.2 ± 0.07
313.15 K	1014.5 ± 1.1	90.52 ± 4.2	0.463 ± 0.014	1.61 ± 0.05
323.15 K	1009 ± 1.1	91.03 ± 4.2	0.472 ± 0.014	1.31 ± 0.04
